Results published in patent publication US20190381071A1, “METHODS AND COMPOSITIONS FOR TREATING AND/OR PREVENTING THE PROGRESSION AND/OR ONSET OF AGE-RELATED NEURODEGENERATION” (Enterin, Inc., priority 2018, published 2019).
“Also recorded” adds a separate entry of the source.

Legend:
C57BL/6 males = assay: Growth delay in C57BL/6 mice (Example 2, FIG. 3); format: in vivo; conditions: for weight: 10 mg/kg i.p. every 3 days for two doses
Protocol: Animals were then weighed and body length measured once weekly for a period of 40 days.
An experiment was conducted to determine whether treatment of animals with Aminosterol 1436 would delay growth of the animal.
C57BL/6 males (12-16 grams) were administered either vehicle or 10 mg/kg (i.p.) of Aminosterol 1436 every 3 days for two doses, for a total of 20 mg/kg over a 6 day period. The mice were about 3 weeks old, and there were 10 mice/arm. The animals were weighed and body length measured once weekly for a period of 40 days.
The results shown in FIG. 3 indicate that growth rates of the animals were slowed upon administration of Aminosterol 1436, which is consistent with the results shown in FIG. 2 and described in Example 1.

[1] = Brain localisation of radioactive Aminosterol 1436 after IV or ICV administration (FIG. 1); format: in vivo; conditions: radioactive compound, rat, IV via peripheral vein or injected into 3rd ventricle (ICV)
Description: The exact mechanism by which Aminosterol 1436 achieves its effect on preventing, delaying onset, and/or treating neurodegeneration, delaying maturity, retarding aging, and increasing potential lifespan is not known. However, without being bound by theory, Applicant theorizes that the effect of Aminosterol 1436 is likely in part due to the drug's effects on the hypothalamus within the brain of the animal.

HIV = conditions: tissue culture; U.S. Pat. No. 5,763,430; cited from earlier work
phosphatase PTP1B = target: T1, phosphatase PTP1B (Homo sapiens, UniProt P18031); conditions: Lantz et al., 2010; cited from earlier work
T1 sequence (P18031 1-435): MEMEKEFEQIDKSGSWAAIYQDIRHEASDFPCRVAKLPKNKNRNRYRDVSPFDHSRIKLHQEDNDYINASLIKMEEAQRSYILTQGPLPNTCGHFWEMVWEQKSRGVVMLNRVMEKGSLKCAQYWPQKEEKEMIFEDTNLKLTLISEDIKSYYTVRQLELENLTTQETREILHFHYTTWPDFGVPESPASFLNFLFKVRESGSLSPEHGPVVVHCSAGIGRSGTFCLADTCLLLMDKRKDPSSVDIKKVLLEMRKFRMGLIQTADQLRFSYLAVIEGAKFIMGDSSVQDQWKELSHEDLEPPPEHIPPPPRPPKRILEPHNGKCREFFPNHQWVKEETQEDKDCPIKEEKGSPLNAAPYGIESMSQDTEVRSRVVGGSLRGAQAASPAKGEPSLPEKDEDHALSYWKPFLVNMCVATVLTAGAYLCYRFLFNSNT

B6D2F1 (BDF1) mice = assay: Dose response of growth delay in BDF1 mice (Example 1, FIG. 2); format: in vivo; conditions: for age at which animals reached maturity: male BDF1 mice, controls 120 days; for delay in reaching maturity, as measured by end weight: vs control
Protocol: While all animals reached the mature weight of about 40 grams, the control animals reached maturity at 120 days, and the animals that received 5 and 10 mg/kg of Aminosterol 1436 reached maturity at 150 and 255 days, respectively.
An experiment was conducted to explore the dose response to a delay in growth of B6D2F1 (BDF1) mice to Aminsoterol 1436.
30 day old male BDF1 mice received either vehicle or Aminosterol 1436 intraveneously (IV) at 5 mg/kg or 10 mg/kg (n=15 for each treatment arm) every 3 days until 51 days of age. The Aminosterol 1436 was administered as a aqueous solution in water. BDF1 mice are available from Charles River Laboratories. The animals were fed standard lab chow, offered ad libitum. The animals were weighed and body length measured every 5 days.
However, while the control animals reached maturity at 120 days, the animals that received 5 mg/kg of Aminosterol 1436 reached maturity at 150 days, corresponding to a 25% delay in reaching maturity, as measured by end weight. […] Most importantly, both treated and untreated animals reached normal adult dimensions, albeit at different rates.

adult mouse = assay: Neuroregeneration in adult mouse brain; format: in vivo
Description: The hypothalamus is of particular interest because it happens to be the site of localization of Aminosterol 1436 in the brain.

[2] = U.S. Pat. No. 6,143,738; Ahima et al. (2002); cited from earlier work

Compound	weight (C57BL/6 males; Day 0, control 16 g)	decrease in weight (C57BL/6 males; Day 0 to Day 40, 10 mg/kg i.p. x 2, control increase of 50%)	weight (C57BL/6 males; Day 40, control 24 g)	accumulation in brain [1]	antiviral activity against HIV (HIV)	inhibition of PTP1B (phosphatase PTP1B)	growth rate slower than the controls (by increasing weight) (B6D2F1 (BDF1) mice; 5 mg/kg IV)	age at which animals reached maturity (B6D2F1 (BDF1) mice; 5 mg/kg IV every 3 days from 30 to 51 days of age)	delay in reaching maturity, as measured by end weight (B6D2F1 (BDF1) mice; 5 mg/kg IV)	growth rate slowed (by increasing weight) (B6D2F1 (BDF1) mice; 10 mg/kg IV)	age at which animals reached maturity (B6D2F1 (BDF1) mice; 10 mg/kg IV every 3 days from 30 to 51 days of age)	delay in reaching maturity, as measured by end weight (B6D2F1 (BDF1) mice; 10 mg/kg IV)	linear growth (B6D2F1 (BDF1) mice; 5 and 10 mg/kg IV, data not shown)	mature weight reached (B6D2F1 (BDF1) mice; all animals (5 mg/kg, 10 mg/kg and control))	neuroregeneration (adult mouse)	number of cells in brain areas (adult mouse; subependymal zone, granular layers of olfactory bulb, medial and lateral hypothalamus, thalamus)	appetite suppression and weight loss [2]
CC(C)[C@@H](CC[C@@H](C)[C@H]1CC[C@H]2[C@@H]3[C@H](O)C[C@H]4C[C@@H](NCCCNCCCCNCCCN)CC[C@]4(C)[C@H]3CC[C@]12C)OS(=O)(=O)O [Aminosterol 1436, trodusquemine]	12 g	8.3%	11 g	accumulation of Aminosterol 1436 within the centers of the brain that control growth, maturation, and senescence; also recorded: accumulates within the centers of the brain that control growth, maturation and senescence	exhibits antiviral activity against HIV	inhibit the phosphatase PTP1B	about 30%	150 days	25%	50%	255 days	112.5%	slowed to a corresponding degree	about 40 grams	stimulates neuroregeneration	increase	potent appetite suppression and promotion of dose-dependent weight loss
CC(C)[C@@H](CC[C@@H](C)[C@H]1CC[C@H]2[C@@H]3[C@H](O)C[C@H]4C[C@@H](NCCCNCCCCN)CC[C@]4(C)[C@H]3CC[C@]12C)OS(=O)(=O)O [squalamine, reference compound]																	not shared with squalamine
